{
  "source": "patent US10537575B2",
  "about": "“Phosphodiesterase inhibitors to repair brain and/or retinal injury in human newborns” (priority 2016, dated 2020)",
  "format_in_all_cases": "in vivo",
  "key": {"[1]": {"tested_on": "Long-Evans rat pups (neonatal HI)", "experiment": "Hippocampal injury and neuroinflammation after neonatal HI", "details": "P30", "procedure": "Neonatal HI was induced in male Long-Evans rat pups at postnatal day 10 (P10) by left common carotid ligation followed by 2-hour exposure to 8% oxygen. Sham operated rat pups served as control. […] At P30, rats were sacrificed and their brains extracted. CA1, CA3 and dentate gyrus (DG) areas of the ipsilateral hippocampus were analyzed for microgliosis (Iba1) and astrogliosis (GFAP), neuronal number (NeuN), and vascular density (collagen IV)."}, "[2]": {"tested_on": "Long-Evans rat pups (term neonatal HIE model)", "experiment": "Neurons count (NeuN) in cortex at P30", "details": "HI; for neuronal number near the infarct boundary zone, median (IQR): ipsilateral cortex", "procedure": "Using the second slide prepared for each animal, an immunohistochemistry was performed to examine the number of mature neurons. Neurons were labeled with an anti-neuronal nuclei (NeuN) antibody (Millipore: MAB377, Billerica, Mass., USA) (dilution 1:500, incubation time 1 hour at room temperature) (Hendrickson M L et al., 2011). Sections then were incubated with the secondary antibody Alexa Fluor® 488 goat anti-rabbit IgG (Molecular Probes®, Life Technologies: A11034, Carlsbad, Calif., USA) (dilution 1:1000, incubation time 2 hours at 4° C.). These sections were rinsed with tris-buffered saline and cover slipped with Vectashield Mounting media containing 4,6-diamidino-2-phenylindole (DAPI) (Vector Laboratories: H1200, Burlingame, Calif., USA) to visualize cell nuclei. Cells co-labeled with NeuN and DAPI were identified as neurons. […] One investigator took pictures of the respective fields of view at 10× magnification."}, "[3]": {"tested_on": "Sprague-Dawley rats (rat model of ROP)", "experiment": "Retinal layer thickness in rat model of ROP (hyperoxia)", "details": "ROP animals; sildenafil 50 mg/kg per os twice daily P15 to P21; P31; p<0.05", "procedure": "Sprague-Dawley rats were exposed to hyperoxia (i.e., 80% oxygen) interrupted by three 0.5-hour periods of normoxia (i.e., 21% oxygen) per day or room air only (i.e., 21% oxygen) from post-natal day 4 (P4) to 14 (P14). Pups were then housed in room air. […] Flash electroretinograms were recorded at P29 to assess the retinal function. At P31, retinas were extracted, sectioned and stained with toluidine blue to measure the thicknesses of the different retinal layers."}, "[4]": {"tested_on": "Long-Evans rat pups (term neonatal HIE model)", "details": "HI rat pups", "source_text": "The experiments were run in a dark environment (below 20 lux of illumination). The equipment consists of a 1.3 m-long glass plate with a dim fluorescent light coming from the side and beamed into the glass. The light reflected downwards by the rats' paws as they contact the glass floor is captured by a high-speed video camera placed under the walkway, and then transformed into a digital image ([…] et al., 2006; Hetze S et al., 2012; Lubjuhn J et al., 2009, […] et al., 2013, Wang Y et al., 2008). The walkway was 90 mm wide. The camera was positioned 40 cm below the walkway, and automatic detection settings were applied. The rat pups walked spontaneously at their own speed; the mother was systematically placed in the goal box to motivate the rat pups to run towards it. An intensity threshold was set to 0.1, the camera gain was set to 20, and the maximum allowed speed variation was set to 60%. A minimum of three quality runs per rat pups were acquired. Only uninterrupted runs were saved for analysis; runs, where animals turned or walked backwards, were excluded, and the animal got another try. […] Step sequence regularity index is a percent index for the degree of interlimb coordination during the gait, as measured by the number of normal step sequence patterns, multiplied by the number of paws and divided by the number of paw placements. […]"}},
  "data": [
    {"compound": "CCCc1nn(C)c2c(=O)[nH]c(-c3cc(S(=O)(=O)N4CCN(C)CC4)ccc3OCC)nc12", "note": "[sildenafil]", "values": [
      {"measurement": "neuronal number in the dentate gyrus", "setting": "[1]; HI, 50 mg/kg, vs sham vehicle", "value": "significantly increases"},
      {"measurement": "number of activated microglia and reactive astrocytes in CA1 and dentate gyrus of the hippocampus", "setting": "[1]; HI, higher doses (10 mg/kg and 50 mg/kg)", "value": "significantly reduced"},
      {"measurement": "vascular density in hippocampus", "setting": "[1]; treatment groups vs control group", "value": "no changes in vascular density"},
      {"measurement": "neuronal number near the infarct boundary zone, median (IQR)", "setting": "[2]; high-dose sildenafil, p<0.001", "value": "1368 (1292; 1444) neurons/mm^2"},
      {"measurement": "neuronal number in corresponding region of contralateral cortex, median (IQR)", "setting": "[2]; high-dose sildenafil, p<0.001", "value": "1019 (948; 1106) neurons/mm^2"},
      {"measurement": "neuronal number in corresponding region of contralateral cortex, median (IQR)", "setting": "[2]; low-dose sildenafil, not significant", "value": "808 (586; 963) neurons/mm^2"},
      {"measurement": "neuronal number in corresponding region of contralateral cortex, median (IQR)", "setting": "[2]; medium-dose sildenafil, p<0.001", "value": "999 (930; 1107) neurons/mm^2"},
      {"measurement": "neuronal number near the infarct boundary zone, median (IQR)", "setting": "[2]; sildenafil 2 mg/kg, p<0.01", "value": "1118 (1069; 1238) neurons/mm^2"},
      {"measurement": "neuronal number near the infarct boundary zone, median (IQR)", "setting": "[2]; sildenafil 10 mg/kg, p<0.001", "value": "1222 (1170; 1338) neurons/mm^2"},
      {"measurement": "OPL thickness", "setting": "[3]", "value": "improved OPL thickness"},
      {"measurement": "print length (gait)", "setting": "[4]; high-dose of sildenafil", "value": "showed an increase"},
      {"measurement": "neurological deficits as measured by the gait analysis", "setting": "[4]; sildenafil even in small doses", "value": "improvement of the neurological deficits"}
    ]}
  ]
}
